Experiment: gradient 5% acetonitrile 3 min, to 50% in 2 min, to 85% in 15 min, held 3 min, 100 µL/min
Conditions: column: Zorbax Extend-C18 2.1 x 50 mm; eluents: water / acetonitrile, 0.1% formic acid
Procedure, shortened: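 The system's dead and dwell volumes were 40 μL and 900 μL, with a Zorbax Extend-C18 column (2.1 × 50 mm, 1.8 μm) run at 100 μL/min in water and acetonitrile containing 0.1% formic acid each. Pure standards were analyzed in mixtures of ~100 molecules by HPLC–quadrupole time-of-flight mass spectrometry in positive and negative ionization mode. Retention time was assigned from computationally picked, manually inspected adduct peaks.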

Compound	RP-LC retention time [s]
CC(=O)c1cccc(NC(=O)C2Oc3ccccc3NC2=O)c1 (stereo not drawn)	702
CCOc1cc(=O)c(C(N)=O)nn1-c1ccc(F)cc1	622
Cc1[nH]nc(-c2ccc(S(=O)(=O)NCCc3ccc(S(N)(=O)=O)cc3)o2)c1C	697
Nc1ccc(CCNc2ncnc3c2ncn3C2OC(CO)C(O)C2O)cc1 (stereo not drawn)	540
Cc1cc(F)ccc1NC(=O)c1cc(C(C)C)n2nccc2n1	1140
Cc1cccc(-c2nc3ccccn3c2NC(=O)NCc2cccc(F)c2)c1	669
O=C(NCc1ccco1)c1ccc(NS(=O)(=O)c2cccc(C(F)(F)F)c2)cc1	818
Cc1ccc2cc(CCC(=O)NCc3ccncc3)c(=O)[nH]c2c1	570
COc1ccc2nc(C(=O)NCc3ccccc3C)cn2n1	843
CCCn1cc(S(=O)(=O)Nc2cccc(F)c2)c2cccnc21	883
CCC(C)NC(=O)c1ccc(CN2CCN(Cc3ccc(F)cc3)C(=O)C2=O)cc1 (stereo not drawn)	739
Cc1nn(C)cc1S(=O)(=O)N(Cc1ccccc1)c1ccccc1	861
Cc1ccc2nc(C(=O)NCc3cccs3)cn2c1	646
O=C([C@@H]1C[C@H](F)CN1S(=O)(=O)c1ccc(F)cc1F)N1CCCCC1	812
Cc1cccc(-n2c(=O)c3c(cc(C)n3C)n(CC(=O)Nc3cccc(C(C)C)c3)c2=O)c1	626
O=C1CCN(C(=O)CC2CCCCC2)CCCOCCN1	646

Next, values leading:

RP-LC retention time [s]	Compound
891	Cc1ccc(C)c(S(=O)(=O)N2CCC(c3nc(C(=O)N4CCOCC4)c(C)o3)CC2)c1
745	O=C(CN1C(=O)COc2ccc(C(=O)N3CCCC3)cc21)NCc1ccc(Cl)cc1
1180	Cc1ccc(-c2noc(-c3nc(Cc4cccc(F)c4)no3)n2)cc1
624	CC(C)CN1C(=O)c2cccn2CC1C(=O)N1CCOCC1 (stereo not drawn)
590	COCCc1noc(-c2ccccc2OC2CNC2)n1
714	CN1CCCc2cc(C(CNC(=O)C(=O)Nc3ccc4c(c3)OCO4)N3CCCC3)ccc21 (stereo not drawn)
821	CCc1noc(C2CCCCN2Cc2nc(-c3cccnc3)no2)n1 (stereo not drawn)
666	COCc1c(C(=O)O)nnn1-c1ccc2c(c1)OCCO2
819	Cc1ccc(CNC(=O)c2ccc3ccnc(N4CCN(c5ccccc5)CC4)c3c2)o1
777	O=C(c1ccoc1)N1CCC(c2cc(-c3ccc(F)cc3)n[nH]2)CC1
695	Cc1ccc(C(=O)NCCc2nc3cccnc3n2C(C)C)c(C)c1
712	COc1ccc(CC(=O)N2CC(c3nc(C)no3)C3(CCOCC3)C2)cc1 (stereo not drawn)
723	CC(=O)N1CCc2cc(N3CC(C(=O)Nc4cccc(Cl)c4C)CC3=O)ccc21 (stereo not drawn)
719	CCCNc1cc(N2CCCC(CCC(=O)N3CCN(c4ccccc4)CC3)C2)ncn1 (stereo not drawn)
547	COc1ccc(C(=O)NCCS(=O)(=O)NCc2cccnc2)cc1
687	O=C(Cn1cnc2nc(N3CCOCC3)ncc2c1=O)NCc1cccc(C(F)(F)F)c1
1040	CCn1cc(-c2nc(C(=O)N3CCN(c4ccccc4F)CC3)cs2)c2cccnc21
635	CCc1nc2c(c(=O)n1CC(=O)Nc1ccc(OC)cc1)CN(Cc1ccccc1)CC2
698	CCCNC(=O)C1CCCN(c2ccc(SCC(=O)NCc3ccc(C)c(C)c3)nn2)C1 (stereo not drawn)
764	COc1ccc(C)cc1Nc1c(-c2nc(C)no2)cnc2nc(C)ccc12
1010	Cc1c(-c2nnc(C3CCC3)o2)c(S(=O)(=O)NCc2ccc(Cl)cc2)c(C)n1C
646	O=C(c1cnccn1)N1CCC(c2noc(C3CC3)n2)C1 (stereo not drawn)

— the METLIN SMRT retention time set (Domingo-Almenara et al. 2019)
